The results in this text go back to patent US9708336B2, “Metallo-beta-lactamase inhibitors” (priority 2014, dated 2017).

The structures appear in SMILES notation. Where two headings read alike, the source gives them in different places.

One assay deals with NDM-1 (Klebsiella pneumoniae, UniProt C7C422). Nature of the assay: biochemical. As to conditions: NDM-1 enzyme, CCF2-FA fluorescence assay; read-out: NDM-1 IC50. It counts as biochemical.
Another assay concerns the target VIM-1 (Pseudomonas aeruginosa (strain ATCC 15692 / DSM 22644 / CIP 104116 / JCM 14847 / LMG 12228 / 1C / PRS 101 / PAO1), UniProt A0A0F7KYQ8). In words: Enzyme activity: determination of IC50, fluorescence assay with CCF2-FA substrate (VIM-1). Format: biochemical. The conditions noted are these: CCF2-FA fluorescence assay.
For assay [1], the system named is Klebsiella pneumoniae expressing VIM-1 (IHMA599644). Nature of the assay: Antibiotic potentiation activity: synergistic concentration (MITC95) with imipenem, OD600 growth. The conditions noted are these: Klebsiella pneumoniae expressing VIM-1 (IHMA599644), 95% growth inhibition. Format: cell-based. In a few lines:
(§1)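 Each strain, suspended in saline from overnight colonies and diluted 1:100 into 1.1× CAMHB, is dosed with imipenem at 4 μg/ml (or 1 μg/ml) plus compound, incubated 22–24 h at 35 °C and read by absorbance.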

The test system of assay [2] is Escherichia coli expressing NDM-1 (CLB30016). Described as above. It counts as cell-based. The conditions noted are these: Escherichia coli expressing NDM-1 (CLB30016), 95% growth inhibition. In a few lines:
as §1

The test system of assay [3] is Serratia marcescens expressing IMP-1 (CL5741). Described as above. Format: cell-based. The conditions noted are these: Serratia marcescens expressing IMP-1 (CL5741), 95% growth inhibition. The gist of the method:
as §1

The target in another assay is IMP-1 (Serratia marcescens, UniProt P52699). In words: biochemical. Format: biochemical. The conditions noted are these: IMP-1 enzyme, CCF2-FA fluorescence assay; read-out: IMP-1 IC50.
Chain of IMP-1 (P52699 whole entry, looked up): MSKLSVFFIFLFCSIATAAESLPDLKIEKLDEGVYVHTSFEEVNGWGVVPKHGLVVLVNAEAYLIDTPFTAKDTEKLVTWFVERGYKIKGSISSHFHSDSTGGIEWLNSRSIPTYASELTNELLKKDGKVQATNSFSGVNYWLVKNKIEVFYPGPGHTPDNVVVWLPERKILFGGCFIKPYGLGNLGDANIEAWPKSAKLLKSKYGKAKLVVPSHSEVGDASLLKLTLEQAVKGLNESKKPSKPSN
Where [4] appears, read: VIM-1 enzyme, read-out: VIM-1 IC50.

Chain of NDM-1 (C7C422 whole entry, looked up, species assumed): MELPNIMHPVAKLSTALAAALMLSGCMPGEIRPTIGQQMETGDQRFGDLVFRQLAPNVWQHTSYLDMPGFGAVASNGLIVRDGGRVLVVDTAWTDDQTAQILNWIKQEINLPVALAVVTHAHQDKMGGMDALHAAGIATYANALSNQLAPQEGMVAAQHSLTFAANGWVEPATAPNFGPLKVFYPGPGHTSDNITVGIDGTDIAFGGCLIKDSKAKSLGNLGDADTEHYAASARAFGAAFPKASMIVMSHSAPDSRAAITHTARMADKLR

`Nc1ccc(-c2ccc(Br)c(S(N)(=O)=O)c2-c2nn[nH]n2)cn1` [Example 264, 3-(6-aminopyridin-3-yl)-6-bromo-2-(2H-tetrazol-5-yl)benzenesulfonamide]: the IC50 at NDM-1 was 4.61 nM; at VIM-1 (setting [4]), 4.4 nM; at IMP-1, 16.9 nM. The “Klebsiella pneumoniae MITC95” value in assay [1] was 1.781 µM. Moreover, in assay [2], the “Escherichia coli MITC95” value turned out to be 0.04688 µM. In assay [3], the “Serratia marcescens MITC95” value amounted to 0.3828 µM.
`Nc1ccc(-c2ccc(C(F)(F)F)c(S(N)(=O)=O)c2-c2nn[nH]n2)cn1` [Example 265, 3-(6-aminopyridin-3-yl)-2-(2H-tetrazol-5-yl)-6-(trifluoromethyl)benzenesulfonamide]: the IC50 at NDM-1 is 2.65 nM; at VIM-1 (VIM-1 IC50, VIM-1 enzyme), 1.26 nM; on IMP-1 it was 6.93 nM. The “Klebsiella pneumoniae MITC95” value in assay [1] was found to be 4.775 µM. Moreover, the “Escherichia coli MITC95” value in assay [2] amounted to 0.125 µM. For the same compound, in assay [3], the “Serratia marcescens MITC95” value was 0.4271 µM.
Regarding `NS(=O)(=O)c1c(Br)ccc(-c2ccnc3ccccc23)c1-c1nn[nH]n1` [Example 266, 6-bromo-3-(quinolin-4-yl)-2-(2H-tetrazol-5-yl)benzenesulfonamide], the half-maximal inhibitory concentration (IC50) on NDM-1 came to 2.08 nM; at VIM-1 (setting [4]) it was 0.689 nM; on IMP-1 it was 12.6 nM. For the same compound, in assay [1], the “Klebsiella pneumoniae MITC95” value worked out at 9.375 µM. The “Escherichia coli MITC95” value in assay [2] turned out to be 3.125 µM. In assay [3], the “Serratia marcescens MITC95” value was 0.7813 µM.
On to `Cc1ccc(-c2ccc(Br)c(S(N)(=O)=O)c2-c2nn[nH]n2)cc1` [Example 267, 4-bromo-4′-methyl-2-(2H-tetrazol-5-yl)-[1,1′-biphenyl]-3-sulfonamide], for which the IC50 was 1.81 nM on NDM-1, 2.95 nM on VIM-1 (setting [4]) and 2 nM on IMP-1. Further, in assay [1], the “Klebsiella pneumoniae MITC95” value came to 6.25 µM. Further, the “Escherichia coli MITC95” value in assay [2] is 0.7383 µM. In assay [3], the “Serratia marcescens MITC95” value amounted to 0.2552 µM.
On to `Cc1ccc(-c2ccc(C(F)(F)F)c(S(N)(=O)=O)c2-c2nn[nH]n2)cc1` [Example 268, 4′-methyl-2-(2H-tetrazol-5-yl)-4-(trifluoromethyl)-[1,1′-biphenyl]-3-sulfonamide], for which the IC50 on NDM-1 came to 2.01 nM; on VIM-1 (setting [4]), 0.898 nM; at IMP-1 it was 1.64 nM. In addition, in assay [1], the “Klebsiella pneumoniae MITC95” value is 9.375 µM. Also, in assay [2], the “Escherichia coli MITC95” value came out at 2.229 µM. For the same compound, in assay [3], the “Serratia marcescens MITC95” value is 0.25 µM.
Regarding `CS(=O)(=O)Nc1ccc(-c2ccc(Br)c(S(N)(=O)=O)c2-c2nn[nH]n2)cc1` [Example 270, 4-bromo-4′-(methylsulfonamido)-2-(2H-tetrazol-5-yl)-[1,1′-biphenyl]-3-sulfonamide], the half-inhibitory concentration (IC50) on NDM-1 is 2.56 nM; on VIM-1 (setting [4]), 1.68 nM; at IMP-1 it was 4.86 nM. Moreover, the “Klebsiella pneumoniae MITC95” value in assay [1] was found to be 6.25 µM. Also, in assay [2], the “Escherichia coli MITC95” value is 1.563 µM. For the same compound, the “Serratia marcescens MITC95” value in assay [3] was 0.3906 µM.
As for `NS(=O)(=O)c1c(Br)ccc(-c2ccc3c(c2)CNC3)c1-c1nn[nH]n1` [Example 272, 6-bromo-3-(isoindolin-5-yl)-2-(2H-tetrazol-5-yl)benzenesulfonamide], the IC50 on NDM-1 came to 7.17 nM; at VIM-1 (setting [4]) it was 5.54 nM; at IMP-1 it was 49 nM. Moreover, the “Klebsiella pneumoniae MITC95” value in assay [1] is 0.7813 µM. In addition, the “Escherichia coli MITC95” value in assay [2] turned out to be 0.7813 µM. Further, the “Serratia marcescens MITC95” value in assay [3] is 1.563 µM.
For `NS(=O)(=O)c1c(C(F)(F)F)ccc(-c2ccnc3ccccc23)c1-c1nn[nH]n1` [Example 273, 3-(quinolin-4-yl)-2-(2H-tetrazol-5-yl)-6-(trifluoromethyl)benzenesulfonamide], the concentration for half-maximal inhibition (IC50) was 0.581 nM at NDM-1, 0.165 nM at VIM-1 (setting [4]) and 3.21 nM on IMP-1. Moreover, the “Klebsiella pneumoniae MITC95” value in assay [1] was found to be 6.25 µM. The “Escherichia coli MITC95” value in assay [2] is 4.688 µM. Besides, in assay [3], the “Serratia marcescens MITC95” value was 0.3906 µM.
With `CS(=O)(=O)Nc1ccc(-c2ccc(C(F)(F)F)c(S(N)(=O)=O)c2-c2nn[nH]n2)cc1` [Example 274, 4′-(methylsulfonamido)-2-(2H-tetrazol-5-yl)-4-(trifluoromethyl)-[1,1′-biphenyl]-3-sulfonamide], the IC50 on NDM-1, on VIM-1 (setting [4]) and at IMP-1 was 0.637 nM throughout. The “Klebsiella pneumoniae MITC95” value in assay [1] amounted to 4.688 µM. Also, the “Escherichia coli MITC95” value in assay [2] worked out at 0.7813 µM. In addition, in assay [3], the “Serratia marcescens MITC95” value amounted to 0.1953 µM.
With `NS(=O)(=O)c1c(C2CC2)ccc(-c2ccnc3ccccc23)c1-c1nn[nH]n1` [Example 275, 6-cyclopropyl-3-(quinolin-4-yl)-2-(2H-tetrazol-5-yl)benzenesulfonamide], the results for the IC50 on NDM-1, at VIM-1 (setting [4]) and at IMP-1 were 3.68 nM, 0.637 nM and 6.7 nM, respectively. Moreover, in assay [1], the “Klebsiella pneumoniae MITC95” value came to 9.375 µM. For the same compound, the “Escherichia coli MITC95” value in assay [2] is 3.125 µM. Further, the “Serratia marcescens MITC95” value in assay [3] is 0.7813 µM.
On to `NS(=O)(=O)c1c(Cl)ccc(-c2ccc(C3CCNCC3)cc2)c1-c1nn[nH]n1` [Example 276, 4-chloro-4′-(piperidin-4-yl)-2-(2H-tetrazol-5-yl)-[1,1′-biphenyl]-3-sulfonamide], for which the IC50 came to 5.51 nM on NDM-1; 3.38 nM against VIM-1 (VIM-1 IC50, VIM-1 enzyme); 8.75 nM at IMP-1. The “Klebsiella pneumoniae MITC95” value in assay [1] amounted to 1.563 µM. For the same compound, in assay [2], the “Escherichia coli MITC95” value stood at 0.7813 µM. Also, the “Serratia marcescens MITC95” value in assay [3] worked out at 0.3906 µM.
`NCc1nccc2cc(-c3cccc(S(N)(=O)=O)c3-c3nn[nH]n3)ccc12` [Example 280, 3-(1-(aminomethyl)isoquinolin-6-yl)-2-(2H-tetrazol-5-yl)benzenesulfonamide]: the IC50 turned out to be 1.44 nM at NDM-1; 20.4 nM on VIM-1 (VIM-1 IC50, VIM-1 enzyme); 15.8 nM on IMP-1. Besides, in assay [1], the “Klebsiella pneumoniae MITC95” value amounted to 3.125 µM. Also, the “Escherichia coli MITC95” value in assay [2] worked out at 0.5859 µM. For the same compound, the “Serratia marcescens MITC95” value in assay [3] was determined as 6.25 µM.
As for `NC(=O)c1nccc2cc(-c3cccc(S(N)(=O)=O)c3-c3nn[nH]n3)ccc12` [Example 281, 6-(3-sulfamoyl-2-(2H-tetrazol-5-yl)phenyl)isoquinoline-1-carboxamide], the IC50 at NDM-1 amounted to 0.342 nM; at VIM-1 (setting [4]), 12.2 nM; at IMP-1, 42.9 nM. Also, in assay [1], the “Klebsiella pneumoniae MITC95” value worked out at 12.5 µM. In assay [2], the “Escherichia coli MITC95” value was 0.7813 µM. For the same compound, the “Serratia marcescens MITC95” value in assay [3] is 3.125 µM.
On to `Cl.Cl.NC1(c2ccc(-c3cccc(S(N)(=O)=O)c3-c3nn[nH]n3)cc2)CCNCC1` [Example 283, 4′-(4-aminopiperidin-4-yl)-2-(2H-tetrazol-5-yl)-[1,1′-biphenyl]-3-sulfonamide dihydrochloride], for which the IC50 on NDM-1 is 33 nM; on VIM-1 (setting [4]), 308 nM; at IMP-1, 500 nM. In addition, the “Klebsiella pneumoniae MITC95” value in assay [1] worked out at 12.5 µM. In addition, in assay [2], the “Escherichia coli MITC95” value was determined as 0.5859 µM. Further, the “Serratia marcescens MITC95” value in assay [3] is 2.344 µM.
As for `NS(=O)(=O)c1cccc(-c2ccc(C3(O)CCNC3)cc2)c1-c1nn[nH]n1` (stereo not drawn) [Example 284, 4′-(3-hydroxypyrrolidin-3-yl)-2-(2H-tetrazol-5-yl)-[1,1′-biphenyl]-3-sulfonamide], the values for the IC50 at NDM-1, on VIM-1 (setting [4]) and at IMP-1 were 12.7 nM, 55.5 nM and 102 nM, respectively. Besides, the “Klebsiella pneumoniae MITC95” value in assay [1] came to 4.688 µM. Besides, the “Escherichia coli MITC95” value in assay [2] was 0.7813 µM. Further, in assay [3], the “Serratia marcescens MITC95” value was 1.563 µM.
For `NS(=O)(=O)c1cccc(-c2ccc(C3=CCNC3)cc2)c1-c1nn[nH]n1` [Example 285, 4′-(2,5-dihydro-1H-pyrrol-3-yl)-2-(2H-tetrazol-5-yl)-[1,1′-biphenyl]-3-sulfonamide], the IC50 at NDM-1 is 2.83 nM; at VIM-1 (setting [4]), 18 nM; at IMP-1 it was 25.1 nM. Moreover, in assay [1], the “Klebsiella pneumoniae MITC95” value stood at 3.125 µM. In assay [2], the “Escherichia coli MITC95” value was 0.3906 µM. For the same compound, in assay [3], the “Serratia marcescens MITC95” value was found to be 0.7813 µM.
Consider `NCc1ccc2cc(-c3cccc(S(N)(=O)=O)c3-c3nn[nH]n3)ccc2n1` [Example 286, 3-(2-(aminomethyl)quinolin-6-yl)-2-(2H-tetrazol-5-yl)benzenesulfonamide], for which the IC50 was 6.14 nM on NDM-1, 12.7 nM at VIM-1 (setting [4]) and 204 nM at IMP-1. Moreover, the “Klebsiella pneumoniae MITC95” value in assay [1] turned out to be 3.125 µM. The “Escherichia coli MITC95” value in assay [2] amounted to 0.7813 µM. In addition, in assay [3], the “Serratia marcescens MITC95” value was found to be 3.125 µM.
For the compound `NS(=O)(=O)c1cccc(-c2ccc3nc(C(=O)O)ccc3c2)c1-c1nn[nH]n1` [Example 287, 6-(3-sulfamoyl-2-(2H-tetrazol-5-yl)phenyl)quinoline-2-carboxylic acid], the IC50 at NDM-1 is 0.734 nM; at VIM-1 (setting [4]) it was 34 nM; at IMP-1 it was 159 nM. In assay [1], the “Klebsiella pneumoniae MITC95” value is 37.5 µM. Also, the “Escherichia coli MITC95” value in assay [2] is 9.375 µM. Moreover, the “Serratia marcescens MITC95” value in assay [3] was 18.75 µM.

The term IC50 denotes the point on the concentration scale where inhibition reaches its midpoint.
